The text below walks through data of patent US5684151A, “1-arylsulphonyl, arylcarbonyl and 1-arylphosphonyl-3-phenyl-1,4,5,6-tetrahydropyridazines” (priority 1995, dated 1997).

Like-named read-outs stand apart in the source and are kept apart here.

Assay [1] concerns the target T1, progestin receptor from rabbit uterus (Oryctolagus cuniculus, UniProt P06186).
T1 construct: Cytosolic progestin receptor were obtained by mixing rabbit uterine tissue with a Tris buffer; from tissue; host or cells: rabbit uterus cytosol
Kind of assay: Progestin receptor binding (3H-R5020 displacement). The following applies: rabbit uterine cytosol, 4° C., 18 h, read-out: IC50: Binding affinity for the progestin receptor from rabbit uterus. In short, it runs like this: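 Displacement of the radioligand 3H-R5020 was measured in cytosol from homogenized rabbit uterus (pH 7.4 Tris/EDTA/DTT/molybdate buffer), with compounds at 5% final DMSO and about 18 h at 4 °C. Charcoal removed free ligand, scintillation counting quantified bound ligand, and IC50 was the concentration displacing half.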

Assay [2] has as its system mouse (MC3T3-E1) and human (TE-85) osteoblast-line cells. It counts as cell-based. The essentials:
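Proliferation was read as ^3H-thymidine (0.4 μCi) uptake during a 4 h pulse, which started 20 h after compound addition. Before dosing, cells sat 24 h in 0.1% FBS. Values are % times control (100%).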

Broadly, the IC50 is the concentration that inhibits the measured activity by half.

T1 sequence (P06186 whole entry): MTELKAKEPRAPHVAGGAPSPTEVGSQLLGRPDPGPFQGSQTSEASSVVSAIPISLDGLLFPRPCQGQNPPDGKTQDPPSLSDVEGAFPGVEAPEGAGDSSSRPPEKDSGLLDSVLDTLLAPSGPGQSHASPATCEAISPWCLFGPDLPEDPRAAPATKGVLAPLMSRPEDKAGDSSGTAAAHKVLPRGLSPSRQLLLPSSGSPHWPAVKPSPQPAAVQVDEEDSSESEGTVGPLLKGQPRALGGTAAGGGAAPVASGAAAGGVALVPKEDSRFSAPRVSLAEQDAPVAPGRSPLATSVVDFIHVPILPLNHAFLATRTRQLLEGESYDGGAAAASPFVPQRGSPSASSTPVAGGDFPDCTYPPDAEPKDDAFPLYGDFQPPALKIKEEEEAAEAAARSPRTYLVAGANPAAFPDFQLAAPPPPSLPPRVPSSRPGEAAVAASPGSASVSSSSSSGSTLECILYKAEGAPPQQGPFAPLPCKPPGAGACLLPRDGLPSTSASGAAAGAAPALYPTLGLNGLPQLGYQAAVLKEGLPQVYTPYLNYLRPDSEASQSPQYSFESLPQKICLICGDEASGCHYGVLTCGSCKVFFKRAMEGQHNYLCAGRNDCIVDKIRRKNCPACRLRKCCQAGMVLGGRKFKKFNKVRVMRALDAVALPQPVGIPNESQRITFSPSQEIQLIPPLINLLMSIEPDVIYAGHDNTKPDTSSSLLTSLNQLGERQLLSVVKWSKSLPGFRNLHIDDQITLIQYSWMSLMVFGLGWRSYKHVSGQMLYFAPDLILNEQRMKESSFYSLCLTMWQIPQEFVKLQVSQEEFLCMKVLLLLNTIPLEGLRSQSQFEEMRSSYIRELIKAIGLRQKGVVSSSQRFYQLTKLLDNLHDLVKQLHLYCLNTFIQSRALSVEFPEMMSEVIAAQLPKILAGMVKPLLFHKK

On to `O=S(=O)(c1ccccc1)N1CCCC(c2ccc(Cl)c(Cl)c2)=N1` [Compound 43], for which, in assay [1], the IC50 was 3.3 nM. Besides, the “Osteoblast Cell Proliferation, 3H-thymidine incorporation vs control (100%)” value (“Osteoblast Cell Proliferation … (100%)” for short) in assay [2] (10^-6) was determined as 92%; in assay [2] (10^-7), 92%; in assay [2] (10^-8) it was 99%; in assay [2] (10^-9) it was 98%; in assay [2] (10^-10) it was 85%.
Turning to `O=C(c1ccc(Cl)cc1)N1CCCC(c2ccc(Cl)cc2)=N1` [Compound 193], the IC50 in assay [1] turned out to be 10000 nM. Also, the “Osteoblast Cell Proliferation … (100%)” value came to 107% in assay [2] (10^-6); 161% in assay [2] (10^-7); 162% in assay [2] (10^-8); 190% in assay [2] (10^-9); 208% in assay [2] (10^-10).
For `COc1ccc(C2=NN(C(=O)c3ccc(C(C)(C)C)cc3)CCC2)cc1` [Compound 201], the IC50 in assay [1] is 100000 nM. Besides, the “Osteoblast Cell Proliferation … (100%)” value is reported as 89% in assay [2] (10^-6); 117% in assay [2] (10^-7); 91% in assay [2] (10^-8); 69% in assay [2] (10^-9); 52% in assay [2] (10^-10).
For `CCOP(=O)(c1ccccc1)N1CCCC(c2ccc(Cl)c(C(F)(F)F)c2)=N1` (centres unmarked) [Compound 262], the IC50 in assay [1] is 958 nM. For the same molecule, the “Osteoblast Cell Proliferation … (100%)” value in assay [2] (10^-6) is given as 99%; in assay [2] (10^-7), 104%; in assay [2] (10^-8), 102%; in assay [2] (10^-9), 110%; in assay [2] (10^-10) it was 141%.
Turning to `COc1ccc(C2=NN(S(=O)(=O)c3ccc4ccccc4c3)CCC2)cc1` [Compound 65], the IC50 in assay [1] is 57 nM. Further, the “Osteoblast Cell Proliferation … (100%)” value is recorded as 90% in assay [2] (10^-6); 98% in assay [2] (10^-7); 94% in assay [2] (10^-8); 88% in assay [2] (10^-9); 80% in assay [2] (10^-10).
For the molecule `O=S(=O)(c1cc(Cl)ccc1Cl)N1CCCC(c2ccc(Cl)cc2)=N1` [Compound 5], the IC50 in assay [1] turned out to be 5.3 nM. In addition, the “Osteoblast Cell Proliferation … (100%)” value was found to be 89% in assay [2] (10^-6); 106% in assay [2] (10^-7); 124% in assay [2] (10^-8); 108% in assay [2] (10^-9); 114% in assay [2] (10^-10).
Take `O=[N+]([O-])c1cccc(S(=O)(=O)N2CCCC(c3ccc(Cl)cc3)=N2)c1` [Compound 14]: the IC50 in assay [1] amounted to 7 nM. Further, the “Osteoblast Cell Proliferation … (100%)” value in assay [2] (10^-6) is given as 96%; in assay [2] (10^-7), 109%; in assay [2] (10^-8), 118%; in assay [2] (10^-9), 136%; in assay [2] (10^-10), 139%.
As for `O=C(c1ccc(Cl)c(Cl)c1)N1CCCC(c2ccc(F)cc2)=N1` [Compound 205], the IC50 in assay [1] is 263 nM. The “Osteoblast Cell Proliferation … (100%)” value stood at 92% in assay [2] (10^-6); 115% in assay [2] (10^-7); 140% in assay [2] (10^-8); 141% in assay [2] (10^-9); 138% in assay [2] (10^-10).
Take `O=S(=O)(c1ccc(Cl)c(Cl)c1)N1CCCC(c2ccc(Cl)c(C(F)(F)F)c2)=N1` [Compound 81]: in assay [1], the IC50 was determined as 16.5 nM. In addition, the “Osteoblast Cell Proliferation … (100%)” value stood at 110% in assay [2] (10^-7), 119% in assay [2] (10^-8), 119% in assay [2] (10^-9) and 128% in assay [2] (10^-10).
For the molecule `O=C(c1cccc(C(F)(F)F)c1)N1CCCC(c2ccc(Cl)c(Cl)c2)=N1` [Compound 218], the IC50 in assay [1] turned out to be 1980 nM. The “Osteoblast Cell Proliferation … (100%)” value was 112% in assay [2] (10^-6); 115% in assay [2] (10^-7); 119% in assay [2] (10^-8); 107% in assay [2] (10^-9); 109% in assay [2] (10^-10).
Turning to `COc1ccc(C2=NN(S(=O)(=O)c3ccc(Cl)cc3)CCC2)cc1` [Compound 63], the IC50 in assay [1] was found to be 118 nM. Moreover, the “Osteoblast Cell Proliferation … (100%)” value in assay [2] (10^-6) was 101%; in assay [2] (10^-7), 103%; in assay [2] (10^-8), 99%; in assay [2] (10^-9), 77%; in assay [2] (10^-10), 97%.
Turning to `O=S(=O)(c1ccccc1)N1CCCC(c2ccc3c(c2)CCCC3)=N1` [Compound 90], in assay [1], the half-maximal inhibitory concentration (IC50) worked out at 71.7 nM. The “Osteoblast Cell Proliferation … (100%)” value came to 90% in assay [2] (10^-6); 95% in assay [2] (10^-7); 68% in assay [2] (10^-8); 68% in assay [2] (10^-9); 42% in assay [2] (10^-10).
As to `O=C(c1ccc(Cl)c(Cl)c1)N1CCCC(c2ccc(Cl)cc2)=N1` [Compound 200], the IC50 in assay [1] came out at 5000 nM. Besides, the “Osteoblast Cell Proliferation … (100%)” value amounted to 97% in assay [2] (10^-6); 109% in assay [2] (10^-7); 107% in assay [2] (10^-8); 120% in assay [2] (10^-9); 88% in assay [2] (10^-10).
With `Nc1ccc(S(=O)(=O)N2CCCC(c3ccc(Cl)cc3)=N2)cc1` [Compound 153, 1-(4-Aminobenzenesulfonyl)-3-(4-chlorophenyl)-1,4,5,6-tetrahydropyridazine], the IC50 in assay [1] was 636 nM. The “Osteoblast Cell Proliferation … (100%)” value in assay [2] (10^-6) amounted to 85%; in assay [2] (10^-7), 115%; in assay [2] (10^-8) it was 83%; in assay [2] (10^-9), 99%; in assay [2] (10^-10), 103%.
Turning to `Cc1ccc(S(=O)(=O)N2N=C(c3cccc(Br)c3)CC3C4C5C=CC(C5)C4CC32)cc1` (centres unmarked) [Compound 161, 1,4,4a,9a-Tetrahydro-1-(4-methylbenzenesulfonyl)-3-(3bromophenyl)bicyclo[2.2.1]hept-7-enyl[5.6-a]cyclopenta[1.2-e]pyridazine], the IC50 in assay [1] is 3000 nM. The “Osteoblast Cell Proliferation … (100%)” value in assay [2] (10^-6) stood at 76%; in assay [2] (10^-7), 95%; in assay [2] (10^-8), 113%; in assay [2] (10^-9), 122%; in assay [2] (10^-10), 112%.
For the molecule `COc1ccc(C2=NN(S(=O)(=O)c3ccccc3)CCC2)cc1` [Compound 64], in assay [1], the IC50 was determined as 550 nM. Moreover, the “Osteoblast Cell Proliferation … (100%)” value is 116% in assay [2] (10^-6); 115% in assay [2] (10^-7); 121% in assay [2] (10^-8); 128% in assay [2] (10^-9); 137% in assay [2] (10^-10).
With `Cc1ccc(S(=O)(=O)N2CCCC(c3ccc4c(c3)CCCC4)=N2)cc1` [Compound 87], the IC50 in assay [1] was found to be 82.2 nM. Also, the “Osteoblast Cell Proliferation … (100%)” value in assay [2] (10^-6) was determined as 120%; in assay [2] (10^-7), 115%; in assay [2] (10^-8), 125%; in assay [2] (10^-9), 117%; in assay [2] (10^-10), 127%.
For the molecule `COc1ccc(C2=NN(C(=O)c3cccc(Cl)c3)CCC2)cc1` [Compound 188], in assay [1], the IC50 was found to be 100000 nM. Further, the “Osteoblast Cell Proliferation … (100%)” value in assay [2] (10^-6) was 105%; in assay [2] (10^-7), 129%; in assay [2] (10^-8) it was 130%; in assay [2] (10^-9) it was 135%; in assay [2] (10^-10), 137%.
On to `Cc1ccc(C(=O)N2CCCC(c3ccc(Cl)cc3)=N2)cc1` [Compound 192], for which the IC50 in assay [1] turned out to be 100000 nM. For the same molecule, the “Osteoblast Cell Proliferation … (100%)” value is reported as 115% in assay [2] (10^-6); 131% in assay [2] (10^-7); 128% in assay [2] (10^-8); 132% in assay [2] (10^-9); 148% in assay [2] (10^-10).
